The values below come from publication PMC7694207, “Functional Characterization of the N-Acetylmuramyl-L-Alanine Amidase, Ami1, from Mycobacterium abscessus” (Cells, 2020).

Non-standard residues stand in square brackets, D forms with d. Residues, ends and D or L forms follow the SMILES beside them.

Assay [1] addresses T1, Ami1Mab (Mycobacteroides abscessus, UniProt B1MFL7).
T1 construct: gene MAB_0318c; first 40 residues (signal peptide) removed; pET151 N-terminal tag cut by TEV; E. coli BL21(DE3) pRARE2; zinc enzyme
As to the kind of experiment: TLC-based muramyl-dipeptide hydrolysis assay. It counts as biochemical. To be noted: substrate MDP; PBS; 37 °C; compound numbering as in Results.

Assay [2] deals with T1, Ami1Mab. The experiment in a line: TLC hydrolysis assay, ninhydrin. To be noted: PBS, 37 °C, 30 min; Zn2+-dependent. It is filed as biochemical.
Assay [3] has as its target T2, Ami1Mtb (Mycobacterium tuberculosis, UniProt I6Y4D2).
T2 construct: gene Rv3717
It counts as biochemical.

Assay [4] deals with T1, Ami1Mab. The experiment in a line: X-ray co-crystal structure, […] Å. It is filed as binding. The following applies: co-crystallized with 5 mM dipeptide; active site near Zn2+.
Assay [5] concerns the target T1, Ami1Mab. The experiment in a line: TLC-based muramyl-dipeptide hydrolysis assay. To be noted: substrate MDP; PBS; 37 °C. It is filed as biochemical.
For assay [6], the target named is T1, Ami1Mab. As to the kind of experiment: TLC-based muramyl-dipeptide hydrolysis assay. It counts as biochemical. To be noted: substrate MDP; PBS; 37 °C; compound numbering as in Results. This is another data set of the same source.

T1 sequence (B1MFL7 entry or part of it): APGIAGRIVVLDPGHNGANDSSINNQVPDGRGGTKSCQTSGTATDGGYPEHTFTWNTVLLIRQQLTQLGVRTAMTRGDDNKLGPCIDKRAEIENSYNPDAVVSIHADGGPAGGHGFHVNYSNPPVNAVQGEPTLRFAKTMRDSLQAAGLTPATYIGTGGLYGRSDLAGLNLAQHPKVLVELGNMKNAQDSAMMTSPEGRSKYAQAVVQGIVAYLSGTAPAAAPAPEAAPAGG
T2 sequence (I6Y4D2 whole entry, looked up): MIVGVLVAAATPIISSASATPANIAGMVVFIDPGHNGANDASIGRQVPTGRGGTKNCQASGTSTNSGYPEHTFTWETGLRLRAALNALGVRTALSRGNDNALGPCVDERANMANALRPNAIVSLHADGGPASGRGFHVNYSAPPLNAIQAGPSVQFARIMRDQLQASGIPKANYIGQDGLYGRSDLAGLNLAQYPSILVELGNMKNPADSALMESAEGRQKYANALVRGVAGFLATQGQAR

Consider `Nc1ccccc1-c1nn[nH]n1` [compound 2, 2-(1H-1,2,3,4-tetrazol-5-yl)aniline], for which the “inhibitory activity starting at” value in assay [1] stood at 800 µM.
For `CC(=O)N[C@H]1C(O)O[C@H](CO)[C@@H](O)[C@@H]1O[C@H](C)C(=O)N[C@@H](C)C(=O)N[C@H](CCC(=O)O)C(N)=O` (stereo partly drawn) [muramyl-dipeptide], the “TLC hydrolysis assay, ninhydrin” value was “MDP was rapidly hydrolyzed by Ami1Mab” in assay [2]; “Activity of both Ami1Mab and Ami1Mtb is inhibited after incubation with EDTA” in assay [3].
For the molecule `C[C@H](N)C(=O)N[C@H](CCC(=O)O)C(N)=O` [L-Ala-D-IsoGln] (H-Ala-[dE]-NH2), the “X-ray co-crystal structure, 1.7 Å” value in assay [4] was “The co-crystal structure of Ami1Mab bound to L-Ala-D-IsoGln was also solved”.
For the molecule `O=C(O)c1coc2ccnc(Cl)c12` [compound 1, 4-chlorofuro [3,2-c]pyridine-3-carboxylic acid], in assay [5], the “inhibitory effect, starting at” value was 150 to 200 µM.
`O=C(O)c1ccnc(Cl)c1C(=O)O` [compound 3, 2-chloropyridine-3,4-dicarboxylic acid]: the “inhibitory effect, starting between” value in assay [6] fell in the range of 250 to 500 µM.
